Measurements from paper PMC7111485 (Bioorganic & Medicinal Chemistry, 2016).

Assays:
HeLa cells = conditions: for cell death ratio: human
[1] = target: Bovine spleen cathepsin B (Bos taurus, UniProt P07688); format: biochemical

Row | Compound | cell death ratio (HeLa cells) | further results
1 | COc1cccc(/C=C/C(=O)N[C@@H](COC(=O)c2ccccc2)C(=O)NC2CCCCC2)c1 [7i, (S)-N-(E)-3′-Methoxy-3-phenylprop-2-enoicserine(benzoyl)cyclohexylamide] | less than 20% | 
2 | COc1cc(/C=C/C(=O)N[C@@H](COC(=O)c2ccccc2)C(=O)NC2CCCCC2)cc(OC)c1OC [7k, (S)-N-(E)-3′,4′,5′-Trimethoxy-3-phenylprop-2-enoicserine(benzoyl)cyclohexylamide] | less than 20% | 
3 | COc1cc(/C=C/C(=O)N[C@H](COC(=O)c2ccccc2)C(=O)NC2CCCCC2)cc(OC)c1OC [ent-7k] |  | cytotoxicity (in words) (HeLa cells): no cytotoxicity
4 | O=C(/C=C/c1ccccc1)N[C@H](COC(=O)c1ccccc1)C(=O)NC1CCCCC1 (single isomer, unassigned) [ent-3] |  | Inhibition (%) [1]: no inhibition; cytotoxicity (in words) (HeLa cells): no cytotoxicity
5 | COc1ccccc1/C=C/C(=O)N[C@@H](COC(=O)c1ccccc1)C(=O)NC1CCCCC1 [7f, (S)-N-(E)-2′-Methoxy-3-phenylprop-2-enoicserine(benzoyl)cyclohexylamide] |  | inhibitory activity relative to 3 (times) [1]: about 10 times; inhibitory mechanism (Lineweaver–Burk plot) [1]: competitive inhibition
6 | O=C(/C=C/c1ccccc1)N[C@@H](COC(=O)c1ccccc1)C(=O)NC1CCCCC1 [compound 3, (S)-N-Cinnamoyl serine(benzoyl)cyclohexylamide] | less than 20% | 
7 | O=C(/C=C/c1ccc(OC(=O)c2ccccc2)cc1)N[C@@H](COC(=O)c1ccccc1)C(=O)NC1CCCCC1 [7j, (S)-N-(E)-4′-Benzoyloxy-3-phenylprop-2-enoicserine(benzoyl)cyclohexylamine] | less than 20% | 
8 | COc1cc(/C=C/C(=O)N[C@@H](COC(=O)c2ccccc2)C(=O)NC2CCCCC2)cc(OC)c1 [7h, (S)-N-(E)-3′,5′-Dimethoxy-3-phenylprop-2-enoicserine(benzoyl)cyclohexylamide] | less than 20% | 
